From a melting point compilation (Tetko et al.; mined from patent text by program, amines drawn as free bases though some values may be those of a salt)

SMILES | melting point
CCOC(=O)c1ccc2c(c1)C(=O)N(C1CC(C)(C)N(C(C)=O)C(C)(C)C1)C2=O | 119 to 121 °C
COC(=O)C(C(C)C)N(C)S(=O)(=O)c1ccc(-c2ccc(NC(=O)c3cc4ccccc4o3)cc2)cc1 (stereo not given) | 67 to 69 °C
CC(C)n1nc(-c2c(-c3ccccc3)nc(N)nc2-n2cnc3ccccc32)ccc1=O | 242 to 244 °C
COC(=O)CCCc1cc2cc(C(F)(F)F)ccc2n1S(=O)(=O)c1cccc(C(C)(C)C)c1 | 84 °C
COC(=O)C(C)(C)S(=O)(=O)N1CCC(c2ccc(-c3nccs3)c(C)c2)CC1 | 111 to 114 °C
CN1CCN(c2cccc3ccc(Nc4ccc([N+](=O)[O-])cc4[N+](=O)[O-])cc23)CC1 | 153 to 154 °C
Cn1cc(-c2cc3cccnc3[nH]2)c2cc(C(=O)NCCO)ccc21 | 256 to 257 °C
Cc1nc(N2CCN(Cc3ccc(F)cc3)C2=O)sc1C#N | 136 to 139 °C
O=C1C(Cl)=C(c2ccccc2)C(=O)N1c1cccc(Cl)c1 | 67 to 68 °C
COc1ccccc1OC(=O)C(=O)Oc1ccccc1OC | 123 to 126 °C
N#CCNC(=O)C1CC1 | 91 to 92 °C
COC(=O)c1cccc(Cn2nc(C(N)=O)c3ccccc32)c1 | 166 to 168 °C
CN1CCC(c2[nH]c(=O)c3ccccc3c2-c2ccccc2F)CC1 | 247 to 249 °C
CCN1c2ncccc2C(=O)Nc2c(C)cc(NCCCO)nc21 | 222 to 224 °C
CCC(Oc1ccc(C(C)(C)CC)cc1C(C)(C)CC)C(=O)Nc1cc(O)c(NC(=O)c2ccccc2NS(C)(=O)=O)cc1Cl (stereo not given) | 199 to 201 °C
COc1cccc(CNC(=O)c2ncc3ccccc3n2)c1 | 91 to 93 °C
O=C(C=Cc1ccc(CNC2CCCCC2)cc1)Nc1ccc(-c2ccc(Cl)cc2)cc1 | 247 to 248 °C
COC(=O)c1cccc2nc(SCCN3CCN(CC(=O)Nc4c(C(C)C)cccc4C(C)C)CC3)oc12 | 159 to 161 °C
CC(C)CC(NC(=O)CCc1ccccc1)C(=O)N[C@@H](Cc1ccccc1)C(=O)CSCc1ccco1 (stereo not given in full) | 117 to 119 °C
CC(C)C(=O)Nc1cn(-c2cncc(F)c2)nc1CCl | 172 to 177 °C
CCCCCCCCCCCCNC(N)=O | 105 to 107 °C
Nc1ccc(-c2ncc(Br)cn2)c([N+](=O)[O-])c1 | 165 to 167 °C
CCN(C(C)=O)c1cccc(C(=O)C=CN(C)C)c1 | 110 to 113 °C
CN(C)c1c(C#N)c(C(F)(F)F)nn1-c1c(Cl)cc(C(F)(F)F)cc1Cl | 105 to 107 °C
CSc1cc(Oc2cccc(C(F)(F)F)c2)nc(C(=O)NC(C)C)c1 | 66 to 69 °C

SMILES | melting point
O=C(c1ccc(Cl)c([N+](=O)[O-])c1)c1ccc(Cl)c([N+](=O)[O-])c1 | 131 to 132 °C
CC(C)OC(=O)N1CCC(c2nc3cc(-c4ccc(C(=O)NC5CC5)c(F)c4)ccc3o2)CC1 | 162 to 165 °C
O=C1C(=O)N(Cc2ccc(Br)cc2F)c2c(Cl)cccc21 | 164 to 166 °C
CCCOCCn1c(CN2CCN(C)CC2)nc2ccccc21 | 73 to 75.5 °C
COc1ccccc1NC(=O)Nc1nc(Nc2ccccc2-c2ccccc2)nc(N(CCC(=O)O)Cc2ccc(F)cc2)n1 | 108 °C
Cc1cc2c(nc1C(O)c1ccccc1)CCCCC2 (stereo not given) | 130 to 132 °C
CC1Cc2c(nc3ccc(F)cc3c2C(=O)O)-c2ccc(-c3ccccc3F)cc21 (stereo not given) | 274 to 277 °C
NC(=O)C1=C(C(=O)Nc2ccc(Cl)cc2F)CCCC1 | 150 to 151 °C
COc1cc2cc(-c3ccccc3F)sc2c(Cl)c1Cl | 143 to 144 °C
c1ccc(-c2cc3nnc(-c4ccccc4)n3nc2OCc2cn[nH]n2)cc1 | 208 to 220 °C
Cc1c(C)c(C)c(S(=O)(=O)NC(Cc2nc3ccc(C=CCNC4=NCCN4)cc3c(=O)[nH]2)C(=O)O)c(C)c1C (stereo not given) | 131 to 135 °C
O=C(O)/C=C/c1ccc(OCc2cccnc2)cc1 | 228 to 230 °C
CN(C)CCCNS(=O)(=O)c1cccc(N)c1 | 89 to 93 °C
Cc1ccc(C(=O)c2cc3cc(Br)ccc3n2C)cc1 | 169 to 171 °C
Cn1nc2ccc3nc(O)c(O)nc3c2n1 | > 300 °C
OCCCC1=NN(c2nccs2)C(O)(c2ccc(Cl)cc2)C1 (stereo not given) | 146 to 147 °C
COC(=O)c1ccnc(NC(=O)C(C)CSC(C)=O)c1 (stereo not given) | 105 to 106 °C
CC(C)(C)CC(C)(C)c1ccc(Oc2cc3nc(-c4ccccc4)oc3cc2[N+](=O)[O-])cc1 | 183 to 185 °C
O=C(O)CNC(=O)C(CSC(=O)c1ccccc1)SC(=O)c1ccccc1 (stereo not given) | 160 to 163 °C
NC(=S)Nc1ccccc1-c1ccccc1 | 183 to 184 °C
CCOC(=O)C(=CNc1nnc(C)s1)C(=O)c1cc(F)c(F)cc1F | 147 to 151 °C
CCOc1cc2c(cc1OCC)C(C(C#N)SCCC(=O)O)=NCC2 (stereo not given) | 106 to 108 °C
N#Cc1c(N)oc2c1c(Cc1ccccc1)c(O)c1ccccc12 | 224 to 225 °C
Cc1c(C)c2c(c(C)c1O)CCC(C)(CC(=O)N(C)C)O2 (stereo not given) | 142 °C
Cc1cc(SCc2ccccc2)ccn1 | 69 to 70 °C

SMILES | melting point
CC(CNc1ccc(C(=O)O)cc1)Oc1cccc2ccccc12 (stereo not given) | 142 to 144 °C
COC(=O)C=Cc1c(O)cccc1C#CCCCCOC1CCCCO1 (racemic) | 66 to 67.5 °C
CC(C)(Cc1ccccc1)C(=O)Cn1cncn1 | 79 °C
Nc1nc(Cl)c2ncn(COCCOC(=O)c3ccccc3)c2n1 | 130 to 134 °C
CCOC(=O)c1nnn[nH]1 | 86 to 90 °C
O=Cc1ccc(C2CCCc3cncn32)cc1 (stereo not given) | 131 °C
CC(C)NC(=NC#N)Nc1ccc(C2=NNC(=O)CC2C)cc1 (stereo not given) | 255 °C
CSc1c2ccccc2c(C=O)c2ccccc12 | 98.5 to 99 °C
CC(C)(O)c1ccc(-c2ccc3nnn(Cc4ccc5ncccc5c4)c3n2)cc1F | 85 to 89 °C
CC(c1oc2ccccc2c(=O)c1-c1cccc(F)c1)n1nc(-c2ccc(S(C)(=O)=O)cc2)c2c(N)ncnc21 (stereo not given) | 259 to 262 °C
Cc1nc(N)n(C)c(=O)c1CCN1CCN(c2noc3ccccc23)CC1 | 201 °C
c1ccc(C(=NOC(=NC2CCCCC2)NC2CCCCC2)c2ccccc2)cc1 | 104 to 107 °C
COCC1CN(c2ccc(C3CCCCC3)cc2)C(=O)O1 (racemic) | 86 to 88 °C
N#Cc1cccc(NCC(=O)N2CCC(Cc3ccc(F)cc3)CC2)c1 | 138 to 142 °C
CCOC(=O)Cc1nnc(-c2ccccn2)[nH]c1=O | 136 to 137 °C
CNCCN1C(=O)[C@H](O)[C@H](c2ccc(OC)cc2)Sc2cc(Cl)ccc21 | 142 to 145 °C
O=C(O)CCCCCSc1ccc(O)cc1 | 92 to 94 °C
CN(C)C(=O)Sc1ccc2ncc([N+](=O)[O-])c(-c3ccccc3)c2c1 | 171 to 173 °C
CN(C)C=Nc1nc(Cl)c(N=CN(C)C)c(Cl)n1 | 116 to 119 °C
CCCCOc1c(CNC(=O)OC(C)(C)C)n(CC(C)C)c(=O)c2ccc(-c3ccccn3)cc12 | 123 to 124 °C
Cc1oc(C=Cc2ccc(Cl)cc2)nc1CC(=O)O | 157 to 158 °C
COc1cc2c(cc1Nc1ncc(Cl)c(N[C@H]3[C@@H](C(N)=O)[C@@H]4C=C[C@H]3C4)n1)CCN(CC(=O)N1CCOCC1)CC2 | 163 °C
Cn1cncc1C(O)(c1ccoc1)c1ccc2c(c1)c(-c1cccc(Cl)c1)cc(=O)n2C (stereo not given) | 248 °C
c1ccc(C2COc3cccc4c5c(OCCN6CCNCC6)cccc5n2c34)cc1 (stereo not given) | 72 °C
COC(=O)c1ccc(C=O)c2ncccc12 | 128 °C

SMILES | melting point
COc1cc2ccc(C(=O)O)cc2cc1OC | 245 to 247 °C
COc1nc2sc(S(=O)(=O)Cc3ccccc3)nn2c(=O)c1[N+](=O)[O-] | 216 to 218 °C
CC(C)ON=C(c1cccc(O)c1)n1cncn1 | 160 to 163 °C
C=C1CCc2[nH]c3c(c2C1=O)CCC3 | 214 to 215 °C
CCOC(=O)c1cnc(Cl)nc1NCc1ccc(OC)c(Cl)c1 | 114 to 115 °C
CNc1cc(NS(=O)(=O)c2ccc(Cl)cc2)nc(NC)n1 | 272 to 273 °C
CNc1nc(NC)c2ncn(COC(COC(=O)C(C)C)COC(=O)C(C)C)c2n1 | 122 to 123 °C
COc1ccc(CN(CCN(C)C)c2ccc(C(=O)O)cn2)cc1 | 188 to 190 °C
c1ccc2c(c1)C[C@H]1CSC(=Nc3csc4ncccc34)N1C2 | 145 to 146 °C
COCCNc1ccc(N2CCOC2=O)cc1[N+](=O)[O-] | 148 °C
CCC(=O)C(Cc1ccc(O)cc1)C(=O)CC | 44 to 54 °C
Clc1ccc2c(c1)N=C(c1ccncc1)c1ccccc1O2 | 122 °C
N#Cc1c(N2CCN(C(=O)c3cccs3)CC2)c2cscc2[nH]c1=O | 263 °C
COc1ccc(C=O)c(OC)c1I | 103 °C
COc1ccc2c(c1)c(Cc1nc(-c3ccc(F)cc3)cs1)c(C)n2C(=O)c1ccc(Cl)cc1 | 172 to 174 °C
CCCCc1ccc(OC)c(-c2csc(NC(=O)c3ccc(C(=O)N4CCC(N5CCC(NS(C)(=O)=O)C5)CC4)cc3)n2)c1 (stereo not given) | 125 °C
CCCCc1ccc(S(=O)(=O)CC(O)(CS(=O)(=O)c2ccc(OC)cc2)C(=O)NO)cc1 (stereo not given) | 63 to 68 °C
CCC(Oc1ccc(C(C)(C)CC)cc1C(C)(C)CC)C(=O)Nc1cccc(C(=O)NC2=NN(c3c(Cl)cc(Cl)cc3Cl)C(=O)C2N2CCCCC2)c1 (stereo not given) | 186 to 190 °C
NCC1Cc2cccc(-c3cc(Cl)cc(Cl)c3)c2O1 (stereo not given) | 165 to 168 °C
CCc1cc(CC(=O)O)ccc1OCc1ccc2ccccc2n1 | 144 °C
CC1(C)CCC(C)(C)c2cc(CC#Cc3ccc(C(=O)O)c(O)c3)ccc21 | 178 to 180 °C
CN1CCN(Cc2c(C(=O)O)nc3c(=O)[nH]c4cc(C(F)(F)F)ccc4n23)CC1 | > 240 °C
O=C1COc2ccc(CCCCCCc3ccc4c(c3)NC(=O)CO4)cc2N1 | 219 to 225 °C
Fc1ccccc1C1=NCCN(C2=NCCO2)c2ccc(Cl)cc21 | 162 to 164 °C
COc1cc2nc3ccc(F)cc3sc-2cc1=O | 252 °C
